Measured values reported in ChEMBL document CHEMBL5674860, “Optimized Dual-Glo Assay to identify co-culture-induced drug vulnerabilities in 3D CRC models” (2024).

Key:
Assay type in all cases: functional, Homo sapiens
Set-up in all cases: dose or concentration left out as unconfirmed
Colon cancer organoid [1] = assay: Optimized Dual-Glo assay to identify co-culture induced drug vulnerabilities using donated chemical probes and chemogenomics kinase set in O14 CRC organoid and F14 CAF mono and co-culture. […] Cell viability is reported both mono and co-culture models.
Colon cancer organoid [2] = assay: Optimized Dual-Glo assay to identify co-culture induced drug vulnerabilities using donated chemical probes and chemogenomics kinase set in O20 CRC organoid and F20 CAF mono and co-culture. […] Cell viability is reported both mono and co-culture models.
Colon cancer organoid [3] = assay: Optimized Dual-Glo assay to identify co-culture induced drug vulnerabilities using donated chemical probes and chemogenomics kinase set in O06 CRC organoid and F06 CAF mono and co-culture. […] Cell viability is reported both mono and co-culture models.
[4] = Culture type Co-Culture, Transduced with Lucferase2-P2A-EGFP lentivirus
[5] = Culture type Co-Culture, Transduced with Renilla-dsRed lentivirus
[6] = Culture type Mono-Culture, Transduced with Lucferase2-P2A-EGFP lentivirus
[7] = Culture type Mono-Culture, Transduced with Renilla-dsRed lentivirus

SMILES	Cell Viability (Colon cancer organoid [1]; [4]) [%]	Cell Viability (Colon cancer organoid [1]; [5]) [%]	Cell Viability (Colon cancer organoid [1]; [6]) [%]	Cell Viability (Colon cancer organoid [1]; [7]) [%]	Cell Viability (Colon cancer organoid [2]; [4]) [%]	Cell Viability (Colon cancer organoid [2]; [5]) [%]	Cell Viability (Colon cancer organoid [2]; [6]) [%]	Cell Viability (Colon cancer organoid [2]; [7]) [%]	Cell Viability (Colon cancer organoid [3]; [4]) [%]	Cell Viability (Colon cancer organoid [3]; [5]) [%]	Cell Viability (Colon cancer organoid [3]; [6]) [%]	Cell Viability (Colon cancer organoid [3]; [7]) [%]
CN(C)C(=O)Cn1cc(-c2nc(C3(c4ccc(-c5cnc(N)nc5)cc4)CC3)no2)cn1 [BI 0153]	85.1631	102.426	124.477	95.7431	119.435	91.9766	120.102	113.624	114.895	116.335	110.704	85.1331
COc1ccc2c(O[C@@H]3C[C@H]4C(=O)N[C@]5(C(=O)O)CC5/C=C\CCCCC[C@H](NC(=O)OC5CCCC5)C(=O)N4C3)cc(-c3csc(NC(=O)C(C)C)n3)nc2c1C (stereo partly specified) [BI 1230]	105.071	113.929	106.581	104.774	95.5192	162.279	102.506	120.15	113.549	148.301	94.169	100.65
O=C(N[C@H]1CCCCC/C=C\C2C[C@@]2(C(=O)O)NC(=O)[C@@H]2C[C@@H](Oc3ccncc3)CN2C1=O)OC1CCCC1 (stereo partly specified) [BI 1675]	104.235	108.175	94.4705	89.8487	103.036	110.731	113.647	94.6025	118.509	153.84	83.7502	91.3607
CCOCCn1cc(C(=O)Nc2ccc(-n3nc(-c4cccnc4)cc3C(F)(F)F)cn2)ccc1=O [BI 1935]	119.66	103.733	123.828	100.697	76.3275	148.205	94.4512	98.9549	92.9458	113.636	108.149	105.749
C[C@H](NC(=O)c1cnc2n1[C@](C)(Cc1ccc(C#N)cc1)C(=O)N2c1cc(Cl)c(F)c(Cl)c1)C(=O)NC1(c2ccccn2)CC1 [BI 1950]	114.581	100.802	131.753	112.137	121.807	97.0159	112.646	94.255	123.241	151.567	111.279	104.666
CC(C)(C#Cc1ccc(NC(=O)COc2ccccc2C(=O)c2ccccc2)c(Cl)c1)C(=O)O [BI 2439]	91.5107	105.147	118.998	103.818	147.968	100.148	97.854	121.686	98.7582	98.9732	147.342	109.263
Cc1c(NC(=O)COc2ccc(Cl)cc2C(=O)c2cc(F)cc(C(F)(F)F)c2)ccc(C(=O)O)c1F [BI 2540]	79.1363	91.7704	120.435	101.06	66.158	145.555	86.1051	111.497	131.143	97.0984	110.069	102.946
O=C(NC[C@@H]1[C@H]2CN(C(=O)OCc3cc(C(F)(F)F)cc(C(F)(F)F)c3)C[C@@H]12)c1ccc2[nH]nnc2c1 [BI 2545]	75.1961	105.32	137.829	80.7794	135.058	115.933	103.58	122.062	124.688	144.467	99.0945	89.0013
Cc1nccc(COC(=O)N2C[C@@H]3[C@@H](CNC(=O)c4ccc5[nH]nnc5c4)[C@@H]3C2)n1 [BI 3017]	93.935	119.587	137.729	94.2589	107.028	99.2728	143.356	100.924	136.883	128.292	95.2629	74.0867
Cn1nc(C(=O)NCc2ccc(C(=O)O)cc2)cc1-c1ccc2[nH]ccc2c1 [BI 4395]	58.8492	93.1183	115.617	91.6294	100.657	92.7545	82.9051	93.5086	92.221	114.828	85.3335	79.5775
Cn1c(C2(NC(=O)c3ccc(NCC4CCCCC4)nc3)CCC2)nc2ccc(/C=C/C(=O)O)cc21 [BI 7656]	115.178	112.206	113.679	103.836	93.1126	134.723	113.339	113.787	130.07	105.71	133.812	120.577
C[C@@]1(Cc2ccc(C#N)cc2)C(=O)N(c2cc(Cl)cc(Cl)c2)c2ncc(C(=O)NC3(c4nc(C5CCC5)no4)CC3)n21 [BI 9446]	88.6006	103.948	113.423	106.796	72.3076	136.535	95.8483	102.524	85.7019	100.079	74.4511	102.688
CC(=O)N1CCC(c2ccc(C(=O)NC(=N)N)cc2C(F)(F)F)CC1 [BI 9627]	82.2007	132.273	72.3529	98.3882	96.0735	101.417	111.956	89.7357	150.087	189.046	112.79	98.1409
